Values of other authors, collected in US20120309722A1, “THERAPEUTIC REGIMENS FOR THE TREATMENT OF IMMUNOINFLAMMATORY DISORDERS” (priority 2007, published 2012).

Legend:
[1] = BNF guidelines; for Equivalent Dose to Prednisolone: Equal to 1 mg prednisolone: dose equivalent to 1 mg prednisolone; for Equivalent Dose to Prednisolone: Equal to 5 mg prednisolone: dose equivalent to 5 mg prednisolone
[2] = nasal administration; BNF 37 March 1999

Row | Compound | Equivalent Dose to Prednisolone: Equal to 1 mg prednisolone [1] [mg] | Equivalent Dose to Prednisolone: Equal to 5 mg prednisolone [1] [mg] | broadly similar dose from clinical dosing equivalence [2] [µg]
1 | CC(=O)OCC(=O)[C@@]12N=C(C)O[C@@H]1C[C@H]1[C@@H]3CCC4=CC(=O)C=C[C@]4(C)[C@H]3[C@@H](O)C[C@@]12C [deflazacort] | 1.2 | 6 | 
2 | C[C@]12C=CC(=O)C=C1CC[C@H]1[C@@H]3C[C@@H](O)[C@](O)(C(=O)CO)[C@@]3(C)C[C@H](O)[C@@]12F [triamcinolone] | 0.8 | 4 | 110
3 | CC(=O)OCC(=O)[C@@]1(O)CC[C@H]2[C@@H]3CCC4=CC(=O)CC[C@]4(C)[C@H]3C(=O)C[C@@]21C [cortisone acetate] | 5 | 25 | 
4 | methyl prednisone | 0.8 | 4 | 
5 | C[C@]12CCC(=O)C=C1CC[C@@H]1[C@@H]2[C@@H](O)C[C@@]2(C)[C@H]1CC[C@]2(O)C(=O)CO [hydrocortisone] | 4 | 20 | 
